Experimental data reported in patent publication US9233978B2, “6-fused heteroaryldihydropyrimidines for the treatment and prophylaxis of hepatitis B virus infection” (Hoffmann-La Roche Inc., priority 2014, dated 2016).

System: HBV
Assay: Anti-HBV activity in vitro, HepG2.2.15 cells, extracellular HBV DNA by qPCR
Assay type: cell-based
Settings: Hepatitis B virus, HepG2.2.15, 120 h, HepG2.2.15 cells; HBV replication inhibited by 50%, extracellular HBV DNA by qPCR; five days after compound treatment; read-out: EC50
From the text: HepG2.2.15 and HepDE19 are stably-transfected cell lines containing the HBV genome. Both cell lines are derived from the hepatoblastoma cell line Hep G2 (American Type Culture Collection, ATCC® HB-8065™) by the published procedures described in references: MA Selles et al. Proc. Natl. Acad. Sci. USA 1987, 84, 1005-1009 and H Guo et al. Journal of Virology 2007, 81, 12472-12484, respectively. Both cell lines were maintained in Dulbecco's modified Eagle's medium (DMEM)-F12 medium supplemented with 10% fetal bovine serum, 100 U/mL penicillin, 100 μg/mL streptomycin, and 0.5 mg/mL of G418.
While HepG2.2.15 cells constitutively support HBV replication and production of virus particles, HepDE19 cells are inducible by tetracycline. Addition of 1 μg/mL tetracycline in culture medium suppresses HBV replication in HepDE19 cells, whereas switching to tetracycline-free medium resumes this process.
HepG2.2.15 cells were seeded into 96-well plates (3×10^4 cells in 100 μL media per well) and incubated overnight at 37° C. The test compounds were serially half-log diluted in DMSO, then diluted 100 times in culture media. 100 μL of diluted compounds were added into the plates to reach 0.5% final concentration of DMSO in every well. Five days after compound treatment, culture supernatant was collected for further analysis.
For quantitative PCR detection of extracellular HBV DNA, 100 μL of culture supernatant was collected and processed in MagNA Pure 96 Nucleic Acid Purification System (Roche Applied Science) for viral DNA extraction. The extracted samples were subjected to HBV DNA quantification by qPCR.

Going from `CCOC(=O)C1=C(CN2CCN3C(=O)N(C(C)(C)C)C[C@H]3[C@@H]2C(=O)O)NC(c2nccs2)=N[C@H]1c1cccc(F)c1Cl` (single isomer, unassigned) [Example 87A] to `CCOC(=O)C1=C(CN2CCN3C(=O)N(C(C)(C)C)C[C@@H]3[C@H]2C(=O)OC)NC(c2nccs2)=N[C@H]1c1cccc(F)c1Cl` (single isomer, unassigned) [Compound 87B-1], the EC50 falls from 0.062 µM to 0.004 µM (16-fold). The second is the more potent here.

First: CCOC(=O)C1=C(CN2CCN3C(=O)CC[C@@H]3C2)NC(c2nccs2)=N[C@H]1c1ccc(F)c(F)c1 [Example 9, Ethyl (4 S)-6-[[(8aR)-6-oxo-1,3,4,7,8,8a-hexahydropyrrolo[1,2-a]pyrazin-2-yl]methyl]-4-(3,4-difluorophenyl)-2-thiazol-2-yl-1,4-dihydropyrimidine-5-carboxylate]
Second: CCOC(=O)C1=C(CN2CCN3C(=O)CC[C@@H]3C2)NC(c2nccs2)=N[C@H]1c1ccc(F)cc1Br [Example 8, Ethyl (4R)-6-[[(8aR)-6-oxo-1,3,4,7,8,8a-hexahydropyrrolo[1,2-a]pyrazin-2-yl]methyl]-4-(2-bromo-4-fluoro-phenyl)-2-thiazol-2-yl-1,4-dihydropyrimidine-5-carboxylate]
The EC50 of the first is 5.8-fold higher: 0.064 µM for the first, 0.011 µM for the second.

Compared with `COC(=O)C1=C(CN2CCN3C(=O)CC[C@H]3C2)NC(c2nccs2)=N[C@H]1c1ccc(F)cc1Cl` [Example 5, Methyl (4R)-6-[[(8aS)-6-oxo-1,3,4,7,8,8a-hexahydropyrrolo[1,2-a]pyrazin-2-yl]methyl]-4-(2-chloro-4-fluoro-phenyl)-2-thiazol-2-yl-1,4-dihydropyrimidine-5-carboxylate], `COC(=O)C1=C(CN2CCN3C(=O)CC[C@@H]3C2)NC(c2nccs2)=N[C@H]1c1ccc(F)cc1Cl` [Example 6, Methyl (4R)-6-[[(8aR)-6-oxo-1,3,4,7,8,8a-hexahydropyrrolo[1,2-a]pyrazin-2-yl]methyl]-4-(2-chloro-4-fluoro-phenyl)-2-thiazol-2-yl-1,4-dihydropyrimidine-5-carboxylate] is 11-fold lower in EC50: 0.159 µM for the first, 0.014 µM for the second.

Compared with `CCOC(=O)C1=C(CN2CCN3C(=O)N(C(C)(C)C)C[C@H]3[C@@H]2CO)NC(c2nccs2)=N[C@H]1c1cccc(F)c1Cl` (single isomer, unassigned) [Example 103A], `CCOC(=O)C1=C(CN2CCN3C(=O)N(C(C)(C)C)C[C@@H]3[C@H]2CO)NC(c2nccs2)=N[C@H]1c1cccc(F)c1Cl` (single isomer, unassigned) [Example 103B] is 14-fold lower in EC50: 0.14 µM for the first, 0.01 µM for the second.

First: CCOC(=O)C1=C(CN2CCN3C(=O)N(C(C)C)C[C@H]3C2)NC(c2nccs2)=N[C@H]1c1cccc(F)c1Cl (single isomer, unassigned) [Example 104A]
Second: CCOC(=O)C1=C(CN2CCN3C(=O)N([C@H](C)CC(=O)O)C[C@@H]3C2)NC(c2nccs2)=N[C@H]1c1cccc(F)c1Cl [Example 57, (R)-6-[(S)-2-((R)-2-Carboxy-1-methyl-ethyl)-3-oxo-hexahydro-imidazo[1,5-a]pyrazin-7-ylmethyl]-4-(2-chloro-3-fluoro-phenyl)-2-thiazol-2-yl-1,4-dihydro-pyrimidine-5-carboxylic acid ethyl ester]
The EC50 of the first is 4.1-fold higher: 0.131 µM for the first, 0.032 µM for the second. The second is the more potent here.

Compared with `COC(=O)C1=C(CN2CCN3C(=O)OCCC3C2)NC(c2nccs2)=N[C@H]1c1ccc(F)cc1Cl` (stereo partly drawn) [Example 1, Methyl (4R)-4-(2-chloro-4-fluoro-phenyl)-6-[(6-oxo-1,3,4,8,9,9a-hexahydropyrazino[1,2-c][1,3]oxazin-2-yl)methyl]-2-thiazol-2-yl-1,4-dihydropyrimidine-5-carboxylate], `COC(=O)C1=C(CN2CCN3C(=O)OC[C@H]3C2)NC(c2nccs2)=N[C@H]1c1ccc(F)cc1Cl` [Example 3, Methyl (4R)-6-[[(8aR)-3-oxo-5,6,8,8a-tetrahydro-1H-oxazolo[3,4-a]pyrazin-7-yl]methyl]-4-(2-chloro-4-fluoro-phenyl)-2-thiazol-2-yl-1,4-dihydropyrimidine-5-carboxylate] is 4.5-fold lower in EC50: 0.104 µM for the first, 0.023 µM for the second. The second is the more potent here.

First: COC(=O)C1=C(CN2CCN3C(=O)CC[C@@H]3C2)NC(c2nccs2)=N[C@H]1c1ccc(F)cc1Br [Example 7, Methyl (4R)-6-[[(8aR)-6-oxo-1,3,4,7,8,8a-hexahydropyrrolo[1,2-a]pyrazin-2-yl]methyl]-4-(2-bromo-4-fluoro-phenyl)-2-thiazol-2-yl-1,4-dihydropyrimidine-5-carboxylate]
Second: CCOC(=O)C1=C(CN2CCN3C(=O)CCCC3C2)NC(c2nccs2)=N[C@H]1c1cccc(F)c1Cl (stereo partly drawn) [Example 10, Ethyl (4R)-4-(2-chloro-3-fluoro-phenyl)-6-[(6-oxo-3,4,7,8,9,9a-hexahydro-1H-pyrido[1,2-a]pyrazin-2-yl)methyl]-2-thiazol-2-yl-1,4-dihydropyrimidine-5-carboxylate]
The EC50 of the first is 4.1-fold lower: 0.014 µM for the first, 0.057 µM for the second. The first is the more potent here.

First: CCOC(=O)C1=C(CN2CCN3C(=O)N(CC(C)(C)O)C[C@H]3C2)NC(c2nccs2)=N[C@H]1c1cccc(F)c1Cl (single isomer, unassigned) [Example 106A]
Second: CCOC(=O)C1=C(CN2CCN3C(=O)N([C@@H](C)CC(=O)O)C[C@@H]3C2)NC(c2nccs2)=N[C@H]1c1cccc(F)c1Cl [Example 58, (R)-6-[(S)-2-((S)-2-Carboxy-1-methyl-ethyl)-3-oxo-hexahydro-imidazo[1,5-a]pyrazin-7-ylmethyl]-4-(2-chloro-3-fluoro-phenyl)-2-thiazol-2-yl-1,4-dihydro-pyrimidine-5-carboxylic acid ethyl ester]
The EC50 of the first is 1.7-fold higher: 0.032 µM for the first, 0.019 µM for the second.

`CCOC(=O)C1=C(CN2CCN3C(=O)OC[C@H]3[C@@H]2C(=O)O)NC(c2nccs2)=N[C@H]1c1cccc(F)c1Cl` (single isomer, unassigned) [Example 102A] and `CCOC(=O)C1=C(CN2CCN3C(=O)N(C)C[C@@H]3[C@H]2C(=O)O)NC(c2nccs2)=N[C@H]1c1cccc(F)c1Cl` (single isomer, unassigned) [Example 91A] are within 1.5-fold of each other in EC50: 0.147 µM for the first, 0.15 µM for the second.

`CCOC(=O)C1=C(CN2CCN3C(=O)N(CC4CC4)C[C@H]3[C@@H]2C(=O)O)NC(c2nccs2)=N[C@H]1c1cccc(F)c1Cl` (single isomer, unassigned) [Example 97A] and `CCOC(=O)C1=C(CN2CCN3C(=O)N(CC(C)C)C[C@H]3[C@@H]2C(=O)O)NC(c2nccs2)=N[C@H]1c1cccc(F)c1Cl` (single isomer, unassigned) [Example 101A] are within 1.5-fold of each other in EC50: 0.037 µM for the first, 0.04 µM for the second.

`COC(=O)C1=C(CN2CCN3C(=O)N(CC(C)(C)C(=O)O)C[C@@H]3C2)NC(c2nccs2)=NC1c1ccc(Cl)cc1` (mixture of isomers) [Example 77, 3-[(8aS)-7-[[4-(4-chlorophenyl)-5-methoxycarbonyl-2-thiazol-2-yl-1,4-dihydropyrimidin-6-yl]methyl]-3-oxo-5,6,8,8a-tetrahydro-1H-imidazo[1,5-a]pyrazin-2-yl]-2,2-dimethyl-propanoic acid] and `CCOC(=O)C1=C(CN2CCN3C(=O)N(CC(F)(F)C(=O)O)C[C@@H]3C2)NC(c2nccs2)=N[C@H]1c1ccc(F)c(F)c1C` [Example 96, (S)-6-[(S)-2-(2-Carboxy-2,2-difluoro-ethyl)-3-oxo-hexahydro-imidazo[1,5-a]pyrazin-7-ylmethyl]-4-(3,4-difluoro-2-methyl-phenyl)-2-thiazol-2-yl-1,4-dihydro-pyrimidine-5-carboxylic acid ethyl ester] are within 1.5-fold of each other in EC50: 0.146 µM for the first, 0.15 µM for the second.

`COC(=O)C1=C(CN2CCN3C(=O)N([C@H]4CCC[C@@H]4C(=O)O)C[C@@H]3C2)NC(c2nccs2)=N[C@H]1c1ccc(F)cc1Cl` [Example 52, (1S,2S)-2-[(8aS)-7-[[(4R)-4-(2-chloro-4-fluoro-phenyl)-5-methoxycarbonyl-2-thiazol-2-yl-1,4-dihydropyrimidin-6-yl]methyl]-3-oxo-5,6,8,8a-tetrahydro-1H-imidazo[1,5-a]pyrazin-2-yl]cyclopentanecarboxylic acid] and `COC(=O)C1=C(CN2CCN3C(=O)N([C@H]4C[C@@H](C(=O)O)C4)CC3C2)NC(c2nccs2)=N[C@H]1c1ccc(F)cc1Cl` (stereo in doubt) [Example 40, 3-[(8aR)-7-[[(4R)-4-(2-chloro-4-fluoro-phenyl)-5-methoxycarbonyl-2-thiazol-2-yl-1,4-dihydropyrimidin-6-yl]methyl]-3-oxo-5,6,8,8a-tetrahydro-1H-imidazo[1,5-a]pyrazin-2-yl]cyclobutanecarboxylic acid] are within 1.5-fold of each other in EC50: 0.03 µM for the first, 0.034 µM for the second.

Going from `COC(=O)C1=C(CN2CCN3[C@@H](CNS3(=O)=O)C2)NC(c2nccs2)=N[C@H]1c1ccc(F)cc1Cl` [Example 18, Methyl (4R)-6-[[(3aR)-1,1-dioxo-2,3,3a,4,6,7-hexahydro-[1,2,5]thiadiazolo[2,3-a]pyrazin-5-yl]methyl]-4-(2-chloro-4-fluoro-phenyl)-2-thiazol-2-yl-1,4-dihydropyrimidine-5-carboxylate] to `COC(=O)C1=C(CN2CCN3C(=O)OC(C)(C)[C@@]3(CC(=O)O)C2)NC(c2nccs2)=N[C@H]1c1ccc(F)cc1Cl` (single isomer, unassigned) [Example 90B], the EC50 rises from 0.108 µM to 0.3 µM (2.8-fold).

`COC(=O)C1=C(CN2CCN3C(=O)N(C(C)(C)C)C[C@H]3[C@@H]2C(=O)O)NC(c2nccs2)=N[C@H]1c1ccc(F)c(F)c1C` (single isomer, unassigned) [Example 88A] was tested, and the EC50 was 0.677 µM.
